Test results from the NIST ThermoML archive (doi:10.1007/s10765-015-2006-0).

Key:
[1] = 101 kPa, Liquid, Frequency=3 MHz, Sing-around technique in a fixed-path interferometer
[2] = mn = molality of the nth substance listed, in mol/kg; settings: 101 kPa, Liquid, Frequency=3 MHz, Sing-around technique in a fixed-path interferometer

O [water]
[1]
Settings | speed of sound [m/s]
288.15 K | 1463.1
298.15 K | 1495.8
308.15 K | 1519.1

NCC(=O)O [2-aminoacetic acid] + O
speed of sound [m/s], [2]
Settings | m1 = 0.01207 | m1 = 0.0523 | m1 = 0.1037 | m1 = 0.2037 | m1 = 0.3068 | m1 = 0.4124 | m1 = 0.5028 | m1 = 0.6058 | m1 = 0.6829 | m1 = 0.82
288.15 K | 1467.2 | 1470.1 | 1472.3 | 1477.8 | 1483.4 | 1488.7 | 1494.5 | 1499.2 | 1503.4 | 1510.2
298.15 K | 1497.7 | 1500.1 | 1502.3 | 1507.2 | 1512.4 | 1517.8 | 1523 | 1527.3 | 1531.3 | 1537.7
308.15 K | 1520 | 1522.9 | 1524.7 | 1529.7 | 1534.6 | 1539.7 | 1543.8 | 1548.7 | 1552.5 | 1558.6
318.15 K | 1537.2 | 1538.9 | 1541.1 | 1545.8 | 1551.4 | 1555.4 | 1560.2 | 1564.1 | 1567.7 | 1573.5

CC(C)[C@H](N)C(=O)O [L-valine] + O
speed of sound [m/s], [2]
Settings | m1 = 0.00555 | m1 = 0.02398 | m1 = 0.03504 | m1 = 0.05824 | m1 = 0.07873 | m1 = 0.09938 | m1 = 0.2068 | m1 = 0.2992 | m1 = 0.4017
288.15 K | 1467.4 | 1467.3 | 1469.7 | 1469.6 | 1472.8 | 1474.8 | 1477 | 1488.4 | 1497.2
298.15 K | 1497.5 | 1497.4 | 1499.6 | 1499.7 | 1502.4 | 1504.4 | 1506.2 | 1516.6 | 1524.8
308.15 K | 1520.4 | 1520.4 | 1522 | 1522.6 | 1525 | 1526.9 | 1528.2 | 1537.8 | 1545.2
318.15 K | 1537.1 | 1537.4 | 1538.7 | 1539 | 1541.2 | 1542.7 | 1544.4 | 1552.5 | 1560.4

C[C@H](N)C(=O)O [(S)-2-aminopropanoic acid] + O
speed of sound [m/s], [2]
Settings | m1 = 0.00939 | m1 = 0.04689 | m1 = 0.09896 | m1 = 0.2003 | m1 = 0.2979 | m1 = 0.3997 | m1 = 0.4941 | m1 = 0.6099 | m1 = 0.6973 | m1 = 0.7978
288.15 K | 1467.6 | 1469.9 | 1472.8 | 1480.3 | 1487.3 | 1494.3 | 1500.3 | 1509.5 | 1513.3 | 1520
298.15 K | 1497.9 | 1499.8 | 1502.8 | 1509.6 | 1515.9 | 1522.7 | 1528 | 1536.7 | 1540.4 | 1546.2
308.15 K | 1520.8 | 1522.7 | 1525.5 | 1531.8 | 1537.9 | 1544 | 1549 | 1556.8 | 1560.7 | 1566
318.15 K | 1537 | 1539.2 | 1542 | 1547.9 | 1553.2 | 1558.7 | 1564.1 | 1571.4 | 1574.7 | 1611.9

O=C([O-])CC(O)(CC(=O)[O-])C(=O)[O-].[NH4+].[NH4+].[NH4+] [ammonium 2-hydroxypropane-1,2,3-tricarboxylate] + O
speed of sound [m/s], [2]
Settings | 288.15 K | 298.15 K | 308.15 K | 318.15 K
m1 = 0.2 | 1503.6 | 1532.2 | 1553.8 | 1569
m1 = 0.4 | 1540.7 | 1567.5 | 1587.7 | 1602.1
m1 = 0.6 | 1578.5 | 1603.3 | 1622 | 1635.2
m1 = 0.8 | 1615.6 | 1638.6 | 1655.7 | 1667.6
